Data on 1 molecule can be found in patent US9068949B2, “System and method for multiplex spectroscopic imaging” (Purdue Research Foundation, priority 2013, dated 2015).

The subject of this data set is intact mouse ear. The data set can be described thus: DMSO penetration into intact mouse ear monitored by multiplex SRS imaging with MCR analysis. The class given is in vivo. Particulars: DMSO applied to intact mouse ear. The protocol:
In order to reduce ambiguity associated with MCR decomposition, a data augmentation matrix composed of repeating reference spectra, if needed, can be added to the spectral dataset D. The enhanced weight on pure reference spectra permits the MCR algorithm to selectively recover concentration profiles for corresponding Raman bands. An experiment was performed to test this. For tissue penetration data, pure DMSO spectrum and lipid spectrum were provided as initial estimations (reference spectra) for MCR analysis. A data augmentation matrix including reference spectra of DMSO and lipid was added to the spectral dataset in order to reduce ambiguity. For analysis of aqueous solutions of DMSO, a data augmentation matrix composed of reference spectra of DMSO was added to the spectral dataset in order to reduce MCR's ambiguity. A non-negativity constraint was used during the iterations.
FIGS. 10A, 10B, 11A, 11B, and 12 show experimental data of SRS imaging. Various aspects of parallel detection herein advantageously provide a speed of acquiring a spectrum at 30 μs time scale, or over 30,000 spectra per second. For imaging, this scheme avoids spectral profile distortion induced by sample movement, thus enabling observation of target molecules in a highly dynamic system. […] Every three minutes, one spectroscopic SRL image was acquired at the speed of 3 s per frame of 200×200 pixels. Importantly, although the C—H Raman spectra of DMSO and lipid are completely overlapped, spectroscopic SRS imaging, followed by employing MCR analysis as described above, permitted determining concentration maps of lipids and DMSO over time.
The scale bar in the 5-minute image in FIG. 10A is 20 μm. The arrow near the center of the 32-minute image in FIG. 10A indicates the location at which concentrations were measured for FIG. 12, discussed below.
The temporal dynamics of DMSO (circles) and lipid (squares) concentrations are shown. The curve represents fitting by a diffusion model. […]

In the case of `C[S+](C)[O-]` [DMSO, dimethyl sulfoxide], the “structure of the fat cells after DMSO application” value (imaged up to 32 minutes) is “remained intact”. In addition, the “distribution of DMSO in the adipose tissue” value (lipid-abundant layer ~50 μm beneath the skin surface, after 30 min) is given as “inter-cell distribution of DMSO was observed”. Further, the “DMSO penetration into the adipose tissue” value (lipid-abundant layer ~50 μm beneath the skin surface, in the first 5 min) was “Very small amounts”.
